Experiments:
[1] = tested on: U87 cells infected with Ad.Egr-TNF; test: TNFα induction in vitro (Quantikine ELISA of conditioned media); type: cell-based, human
Procedure: 10^6 U87 cells were plated and incubated overnight. The cells were then infected with Ad.Egr-TNF at a multiplicity of infection (MOI) of 100 for 3 h at 37° C. After incubation, 3.8 mL of complete media with or without TMZ was added. Conditioned media were harvested at 48 h after treatment and human TNFα production was quantified using a Quantikine ELISA kit (R&D System Inc., Minneapolis, Minn.).

[2] = tested on: U87 intracranial xenografts; test: Histological analysis and TUNEL of intracranial tumor sections; type: in vivo, nude mice; settings: day 7
Procedure: In a second experiment, mice were randomized into eight groups (untreated control (UTC); intratumoral (IT) Ad.Egr-TNF alone; intraperitoneal (IP) TMZ alone; IR alone; Ad.Egr-TNF and TMZ; Ad.Egr-TNF and IR; TMZ and IR; and Ad.Egr-TNF, TMZ and IR). A single dose of 5×10^5 U87 cells was inoculated into the right caudate nucleus of each mouse on day 0 using a screw guide technique (Lal, S. et al. (2000) J Neurosurg 92:326-333). On day 5, 5×10^8 pu Ad.Egr-TNF in 5 μL volume was injected once via the screw guide directly into the tumor. Beginning two hours after vector injection, 5 Gy IR was delivered to the tumor area and repeated every 2-3 days to a total of 30 Gy. TMZ (5 mg/kg) was given IP 3 h after vector inoculation and like doses were given daily for the next two days for a total dose of 15 mg/kg. Control animals received SFM IT and IP and were also placed in Lucite chambers. Daily assessment of animal appearance was made. […]
Paraffin embedded brains were sectioned (8 μm), stained with hematoxylin and eosin and analyzed in a blinded fashion.
Terminal deoxynucleotidyl transferase-mediated dUTP-biotin nick end-labeling (TUNEL) assay was performed in accordance with the manufacturer's instructions (Chemicon) and analyzed blindly at 400× magnification by use of a computer-aided light microscope with reconstruction software (Neurolucida, Microbrightfield, Vt.). […]

[3] = tested on: NF-κB in MIAPaCa-2 pancreatic cancer cells; test: NF-κB-responsive luciferase reporter assay, MIAPaCa-2; type: cell-based, human
[4] = tested on: NF-κB in BxPC-3 pancreatic cancer cells; test: NF-κB-responsive luciferase reporter assay, BxPC-3; type: cell-based, human
NF-κB = NF-κB nuclear translocation and DNA binding (nuclear extracts, EMSA); type: cell-based, human
Procedure: Confluent cultures of U87 cells were grown in complete medium and then left untreated or treated with 10 ng/mL TNFα for 20 m and 1 h+/−16 h pre-treatment with 100 μM TMZ (or 0.1% DMSO control vehicle). Cells were then washed with 10 mL ice-cold PBS, scraped from the dish, and pelleted by centrifugation at 1000 rpm for 5 m at 4° C. Cell pellets were resuspended in 400 μl of ice-cold buffer A (10 mM HEPES, pH 7.9; 10 mM KCl; 0.1 mM EDTA; 1 mM DTT; 0.5 mM phenylmethysulfonylfluoride [PMSF]; 1 μg/mL leupeptin; 5 μg/mL aprotinin) and allowed to swell on ice for 15 m. Following the addition of 25 μl of 10% NP-40, the suspension was vortexed for 10 s and centrifuged at 14,500 rpm for 1 m at 4° C. Nuclei were resuspended in 50 μl of ice-cold buffer B (20 mM HEPES, pH 7.9; […]; 1 mM EDTA; 1 mM DTT; 1 mM PMSF; 25% glycerol; 1 μg/mL leupeptin; 5 μg/mL aprotinin) and incubated on ice for 15 m. […] Protein concentrations for each sample were determined by the Bradford method (Bio-Rad, Richmond, Calif., USA) and were adjusted to 2 μg/μl by the addition of buffer B. […]
20 μg of whole U87 cell (or nuclear) lysate was subjected to sodium dodecyl sulfate (SDS)-polyacrylamide gel electrophoresis (PAGE). […] Immunoreactive bands were detected by SuperSignal enhanced chemiluminescence (ECL) (Pierce, Rockford, Ill., USA) and exposed to Kodak X-Omat film.

JNK = JNK phosphorylation (activation), Western blot; type: cell-based, human; settings: glioma cells
Procedure: 20 μg of whole U87 cell (or nuclear) lysate was subjected to sodium dodecyl sulfate (SDS)-polyacrylamide gel electrophoresis (PAGE). Following electro-transfer, Immobilon-P membranes (Millipore Corp. Burlington, Mass., USA.) were probed with primary polyclonal antibody against IκBα, phospho-Ser32-IκBα, SAPK/JNK, phospho-Thr183/Tyr185-SAPK/JNK, p65, phospho-Ser536-p65 (Cell Signaling Technology Inc. Beverly, […]., USA) diluted 1:1000 overnight at 4° C. Anti-rabbit IgG HRP-linked secondary antibody (Cell Signaling Technology) was diluted 1:1000 in blocking buffer and applied for 1 h at room temperature. Immunoreactive bands were detected by SuperSignal enhanced chemiluminescence (ECL) (Pierce, Rockford, Ill., USA) and exposed to Kodak X-Omat film.

NF-κB in glioma cells = test: IR- and TNFα-induced NF-κB activity and nuclear translocation; type: cell-based; settings: co-treatment with TNFα and IR

## Cn1nnc2c(C(N)=O)ncn2c1=O [TMZ, temozolomide]
[1]
  TNFα detection in vitro: TNFα was detected
[1]; U87 cells infected with Ad.Egr-TNF (MOI 100), 100 μM TMZ, 48 h
  increase in TNFα expression compared to cells infected with vector alone: 2.3 fold
[2]
  TUNEL positive cells: 14±12 TUNEL^+ cells/10^−6 mm^2
[3]
  TNFα-induced NF-κB transcriptional activity: activated
[4]
  TNFα-induced NF-κB transcriptional activity: activated
NF-κB
  TNFα-induced NF-κB DNA binding: does not directly affect
NF-κB; glioma cells
  TNFα-induced NF-κB nuclear translocation: inhibiting NF-κB nuclear translocation
JNK
  JNK phosphorylation (activation): progressive and delayed activation
NF-κB in glioma cells
  NF-κB transcriptional activity and nuclear translocation increased by TNFα and IR: inhibited

From patent US20110091375A1, “USE OF THE COMBINATION COMPRISING TEMOZOLOMIDE AND TNF-ALPHA FOR TREATING GLIOBLASTOMA” (THE UNIVERSITY OF CHICAGO, priority 2004, published 2011)
